From patent US20240301319A1, “PERFUMING COMPOSITIONS” (FIRMNICH SA, priority 2017, published 2024)

How the values were obtained:
[1] = Volatility of perfuming compounds (Tables 4 to 10), with top/middle/bottom note type; assay type: physicochemical
How it was run: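 Note type follows from air volatility (μg/l): bottom 49–0.1, middle 99–50, top 70,000–100. Compounds are listed within watery, green, fruity, citrus, sweet, gourmand and woody families.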

[2] = Odor threshold and odor value of perfuming compounds (Tables 4 to 10)
[3] = Table 4, watery note, top, middle or bottom note
[4] = Table 6, perfuming compounds having a fruity note
[5] = Table 6, perfuming compounds having a fruity note, note type by volatility
[6] = Table 4, watery note, equals volatility divided by odor threshold
[7] = note type (Top/Middle/Bottom) by volatility, perfuming compounds having a green note
[8] = perfuming compounds having a green note
[9] = Table 8, perfuming compounds having a sweet note
[10] = Table 8, perfuming compounds having a sweet note, note type by volatility
[11] = Table 7, citrus note, top, middle or bottom note
[12] = Table 7, citrus note, equals volatility divided by odor threshold
[13] = Table 10, perfuming compounds having a woody note, note type by volatility
[14] = Table 9, perfuming compounds having a gourmand note, note type by volatility

CC(C)=CCCC(C)C=O (racemic)
Volatility (μg/l air) ([1]; Table 4, watery note): 1889.68 μg/l air
Type [1, 3]: TOP (perfuming compounds having a volatility ranging from 70,000 to 100 μg/l in air are referred to as “top notes”)
Volatility [1, 4]: 1889.68 μg/l air
Type [1, 5]: TOP (perfuming compounds having a volatility ranging from 70,000 to 100 μg/l in air are referred to as “top notes”)
Odor Threshold (μg/l air) ([2]; Table 4, watery note): 2.11E−04 μg/l air
Odor Value [2, 6]: 8.96E+06

CCCCCCCCC(C)C=O (racemic) [(+−)-2-methyldecanal″]
Volatility (μg/l air) ([1]; Table 4, watery note): 297.74 μg/l air
Type [1, 3]: TOP (perfuming compounds having a volatility ranging from 70,000 to 100 μg/l in air are referred to as “top notes”)
Odor Threshold (μg/l air) ([2]; Table 4, watery note): 9.00E−04 μg/l air
Odor Value [2, 6]: 3.31E+05

CC(=O)/C=C/C1C(C)=CCCC1(C)C (racemic)
Type [1, 7]: Middle
Volatility (μg/l air) [1, 8]: 68.11 μg/l air
Odor Threshold (μg/l air) [2, 8]: 5.30E−04 μg/l air

CC(=O)OC/C=C(/C)CCC=C(C)C [(2Z)-3,7-dimethyl-2,6-octadien-1-yl acetate]
Volatility (μg/l air) ([1]; Table 4, watery note): 123.21 μg/l air
Type [1, 3]: TOP (perfuming compounds having a volatility ranging from 70,000 to 100 μg/l in air are referred to as “top notes”)
Volatility [1, 4]: 123.21 μg/l air
Type [1, 5]: TOP (perfuming compounds having a volatility ranging from 70,000 to 100 μg/l in air are referred to as “top notes”)
Odor Threshold (μg/l air) ([2]; Table 4, watery note): 6.02E−02 μg/l air
Odor Value [2, 6]: 2.05E+03
Odor Threshold [2, 4]: 6.02E−02 μg/l air
Odor Value [2, 4]: 2.05E+03

C=CCCCCCCCCC=O [10-undecenal]
Volatility (μg/l air) ([1]; Table 4, watery note): 136.73 μg/l air
Type [1, 3]: TOP (perfuming compounds having a volatility ranging from 70,000 to 100 μg/l in air are referred to as “top notes”)
Odor Threshold (μg/l air) ([2]; Table 4, watery note): 3.15E−03 μg/l air
Odor Value [2, 6]: 4.34E+04

C=CC1(C)CCCC(C)(C)O1 (racemic)
Type [1, 7]: Top
Volatility (μg/l air) [1, 8]: 23116.66 μg/l air
Odor Threshold (μg/l air) [2, 8]: 1.64E−01 μg/l air

CCCCCC1CCCC1O (racemic) [(+−)-2-PENTYL-1-CYCLOPENTANOL]
Volatility [1, 9]: 97.79 μg/l air
Type [1, 10]: Middle
Odor Threshold [2, 9]: 5.43E−03 μg/l air
Odor Value [2, 9]: 1.80E+04

(3Z)-1,3-undecadien-5-yne (A) + (3E)-1,3-undecadien-5-yne (B)
Volatility (μg/l air) ([1]; Table 7, citrus note): 990.87 μg/l air
Type [1, 11]: Top
Odor Threshold (μg/l air) ([2]; Table 7, citrus note): 3.32E−03 μg/l air
Odor Value [2, 12]: 2.98E+05

CC1=CC2CC(C=O)C1CC2C(C)C (stereo not shown) [8-ISOPROPYL-6-METHYL-BICYCLO[2.2.2]OCT-5-ENE-2-CARBALDEHYDE]
Volatility (μg/l air) ([1]; Table 4, watery note): 131.02 μg/l air
Type [1, 3]: TOP (perfuming compounds having a volatility ranging from 70,000 to 100 μg/l in air are referred to as “top notes”)
Type [1, 7]: Top
Volatility (μg/l air) [1, 8]: 131.02 μg/l air
Odor Threshold (μg/l air) ([2]; Table 4, watery note): 7.11E−05 μg/l air
Odor Value [2, 6]: 1.84E+06
Odor Threshold (μg/l air) [2, 8]: 7.11E−05 μg/l air

CCC/C=C/CO [(E)-2-HEXEN-1-OL]
Type [1, 7]: Top
Volatility (μg/l air) [1, 8]: 3752.17 μg/l air
Odor Threshold (μg/l air) [2, 8]: 1.29E−01 μg/l air

CCCC(O)CC[C@@H]1[C@@H](C)CCCC1(C)C (mixture of isomers)
Type [1, 13]: Bottom
Volatility ([1]; Table 10, woody note): 2.34 μg/l air
Odor Threshold ([2]; Table 10, woody note): 5.92E−04 μg/l air

CC1CCC2C(C)(C)C3CC12CCC3(C)O (racemic)
Type [1, 13]: Bottom
Volatility ([1]; Table 10, woody note): 11.83 μg/l air
Odor Threshold ([2]; Table 10, woody note): 3.38E−02 μg/l air

COc1cccc(OC)c1O [2,6-DIMETHOXYPHENOL]
Volatility [1, 9]: 19.23 μg/l air
Type [1, 10]: Bottom
Volatility ([1]; Table 9, gourmand note): 19.23 μg/l air
Type [1, 14]: Bottom
Odor Threshold [2, 9]: 8.01E−06 μg/l air
Odor Value [2, 9]: 2.40E+06
Odor Threshold ([2]; Table 9, gourmand note): 8.01E−06 μg/l air

CC/C=C\CCOC(=O)C/C=C\CC [(3Z)-3-hexen-1-yl (3Z)-3-hexenoate]
Volatility [1, 4]: 210.68 μg/l air
Type [1, 5]: TOP (perfuming compounds having a volatility ranging from 70,000 to 100 μg/l in air are referred to as “top notes”)
Volatility [1, 9]: 210.68 μg/l air
Type [1, 10]: Top
Volatility ([1]; Table 9, gourmand note): 210.68 μg/l air
Type [1, 14]: Top
Type [1, 7]: Top
Volatility (μg/l air) [1, 8]: 210.68 μg/l air
Odor Threshold [2, 9]: 5.17E−02 μg/l air
Odor Value [2, 9]: 4.08E+03
Odor Threshold ([2]; Table 9, gourmand note): 5.17E−02 μg/l air
Odor Threshold (μg/l air) [2, 8]: 5.17E−02 μg/l air

(+−)-3-(4-methyl-3-penten-1-yl)-3-cyclohexene-1-carbaldehyde (A) + (+−)-4-(4-methyl-3-penten-1-yl)-3-cyclohexene-1-carbaldehyde (B)
Volatility (μg/l air) ([1]; Table 4, watery note): 21.54 μg/l air
Type [1, 3]: bottom (perfuming compounds having a volatility ranging from 49 to 0.1 μg/l in air are referred to as “bottom notes”)
Odor Threshold (μg/l air) ([2]; Table 4, watery note): 3.68E−03 μg/l air
Odor Value [2, 6]: 5.85E+03

CCCCCCCC1CCCC(=O)O1 (racemic) [(+−)-6-heptyltetrahydro-2H-pyran-2-one]
Volatility [1, 4]: 0.90 μg/l air
Type [1, 5]: Bottom
Volatility [1, 9]: 0.90 μg/l air
Type [1, 10]: Bottom
Volatility ([1]; Table 9, gourmand note): 0.90 μg/l air
Type [1, 14]: Bottom
Odor Threshold [2, 4]: 1.27E−04 μg/l air
Odor Value [2, 4]: 7.06E+03
Odor Threshold [2, 9]: 1.27E−04 μg/l air
Odor Value [2, 9]: 7.06E+03
Odor Threshold ([2]; Table 9, gourmand note): 1.27E−04 μg/l air

CC/C=C\CCOC(=O)c1ccccc1 [(3Z)-3-hexen-1-yl benzoate]
Volatility [1, 4]: 11.05 μg/l air
Type [1, 5]: Bottom
Volatility (μg/l air) ([1]; Table 7, citrus note): 11.05 μg/l air
Type [1, 11]: Bottom
Type [1, 7]: Bottom
Volatility (μg/l air) [1, 8]: 11.05 μg/l air
Odor Threshold [2, 4]: 4.37E−02 μg/l air
Odor Value [2, 4]: 2.53E+02
Odor Threshold (μg/l air) ([2]; Table 7, citrus note): 4.37E−02 μg/l air
Odor Value [2, 12]: 2.53E+02
Odor Threshold (μg/l air) [2, 8]: 4.37E−02 μg/l air
